Here are results for three compounds from article doi:10.1101/2023.09.25.559398v1 (biorxiv, 2023).

A word on the pKi: it is the Ki on a negative log10 scale, so that one unit is a factor of ten. High values mean a low Ki, low ones a high Ki. Broadly, the Kb is the affinity of an antagonist, worked out from how it opposes an agonist. Usually Ki stands for the equilibrium dissociation constant of an inhibitor or competing ligand from its target. The low end stands for a stronger hold on the target, the high end for a looser hold on the target. As usually defined, the Kd is the concentration at which binding is half-saturated.

Assay [1] has as its target T1, D2longR (Homo sapiens, UniProt P14416). The assay can be described thus: radioligand competition binding, cell homogenates. For orientation: Loss of bound radioactivity is the signal in a displacement assay; it reports binding, not function.
The target of another assay is T2, D4R (Homo sapiens, UniProt P21917).
T2 sequence (P21917 1-419): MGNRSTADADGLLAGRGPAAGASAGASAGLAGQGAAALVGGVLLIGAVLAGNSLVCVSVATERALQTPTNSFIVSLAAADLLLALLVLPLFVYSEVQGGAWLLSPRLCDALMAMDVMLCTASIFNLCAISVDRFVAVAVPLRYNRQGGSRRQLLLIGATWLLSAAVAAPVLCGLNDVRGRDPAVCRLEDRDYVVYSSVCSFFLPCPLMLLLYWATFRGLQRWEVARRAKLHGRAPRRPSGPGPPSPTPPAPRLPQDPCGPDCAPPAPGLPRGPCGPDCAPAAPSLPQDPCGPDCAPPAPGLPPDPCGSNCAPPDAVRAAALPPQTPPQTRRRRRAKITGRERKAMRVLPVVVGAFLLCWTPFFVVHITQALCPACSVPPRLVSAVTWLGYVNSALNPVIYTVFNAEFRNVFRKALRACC
The assay can be described thus: Go1-CASE BRET heterotrimer dissociation assay, antagonist mode. The format is cell-based. For orientation: Bioluminescence resonance energy transfer reports proximity on the nanometre scale.

In assay [2] the target is T1, D2longR. Described as above. The format is cell-based.
In a further assay the target is T3, D4R (D4.4R) (Homo sapiens, UniProt P21917).
T3 sequence (P21917 1-419): T2 sequence (P21917 1-419)
The assay is described as follows: radioligand competition binding, cell homogenates.

The next assay addresses D3R (Homo sapiens, UniProt P35462). The assay can be described thus: radioligand competition binding, cell homogenates.
A further assay concerns the target D5R (Homo sapiens, UniProt P21918). The assay is described as follows: radioligand competition binding, cell homogenates.
Assay [3] addresses D2longR-mNeonGreen (hD2R-mNeonGreen) (Homo sapiens, UniProt P14416). The assay can be described thus: molecular brightness, confocal microscopy of intact cells. The format is cell-based.
A further assay concerns the target D1R (Homo sapiens, UniProt P21728). The assay is described as follows: radioligand competition binding, cell homogenates.

T1 sequence (P14416 whole entry): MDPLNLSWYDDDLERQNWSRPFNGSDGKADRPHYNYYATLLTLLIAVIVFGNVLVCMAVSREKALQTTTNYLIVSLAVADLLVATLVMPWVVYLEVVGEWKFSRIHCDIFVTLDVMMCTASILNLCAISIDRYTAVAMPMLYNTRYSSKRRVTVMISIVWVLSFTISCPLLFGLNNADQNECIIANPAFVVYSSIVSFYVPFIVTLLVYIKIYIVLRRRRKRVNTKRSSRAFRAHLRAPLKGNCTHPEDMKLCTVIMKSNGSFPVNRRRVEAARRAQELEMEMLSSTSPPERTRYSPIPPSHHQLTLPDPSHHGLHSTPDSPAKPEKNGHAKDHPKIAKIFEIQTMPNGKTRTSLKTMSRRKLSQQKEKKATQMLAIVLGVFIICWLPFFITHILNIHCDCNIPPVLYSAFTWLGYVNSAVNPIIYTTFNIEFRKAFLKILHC
D5R, sequence (P21918 whole entry): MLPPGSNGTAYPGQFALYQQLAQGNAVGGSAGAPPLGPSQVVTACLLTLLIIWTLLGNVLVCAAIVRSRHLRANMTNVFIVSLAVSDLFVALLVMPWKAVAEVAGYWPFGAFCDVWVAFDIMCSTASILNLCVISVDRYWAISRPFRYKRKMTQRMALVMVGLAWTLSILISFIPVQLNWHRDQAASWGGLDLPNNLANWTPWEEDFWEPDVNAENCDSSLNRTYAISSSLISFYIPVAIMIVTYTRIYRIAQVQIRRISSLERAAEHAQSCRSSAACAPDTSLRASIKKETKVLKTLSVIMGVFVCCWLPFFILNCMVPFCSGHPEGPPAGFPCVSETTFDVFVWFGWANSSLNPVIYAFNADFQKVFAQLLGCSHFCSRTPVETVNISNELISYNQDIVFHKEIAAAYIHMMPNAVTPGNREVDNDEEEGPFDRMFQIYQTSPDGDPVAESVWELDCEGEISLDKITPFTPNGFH
D1R, sequence (P21728 whole entry): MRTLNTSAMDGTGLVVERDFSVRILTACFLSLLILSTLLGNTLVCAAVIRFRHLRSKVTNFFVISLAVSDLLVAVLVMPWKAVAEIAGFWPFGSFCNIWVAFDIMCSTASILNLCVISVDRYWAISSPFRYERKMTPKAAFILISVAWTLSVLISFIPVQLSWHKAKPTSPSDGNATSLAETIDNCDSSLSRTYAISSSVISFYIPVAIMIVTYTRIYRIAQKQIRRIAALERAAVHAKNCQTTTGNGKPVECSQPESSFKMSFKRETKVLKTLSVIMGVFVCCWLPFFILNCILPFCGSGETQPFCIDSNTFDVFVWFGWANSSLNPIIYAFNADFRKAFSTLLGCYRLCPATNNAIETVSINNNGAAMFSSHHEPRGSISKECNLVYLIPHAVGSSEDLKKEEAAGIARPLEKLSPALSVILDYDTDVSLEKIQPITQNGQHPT
D3R, sequence (P35462 whole entry): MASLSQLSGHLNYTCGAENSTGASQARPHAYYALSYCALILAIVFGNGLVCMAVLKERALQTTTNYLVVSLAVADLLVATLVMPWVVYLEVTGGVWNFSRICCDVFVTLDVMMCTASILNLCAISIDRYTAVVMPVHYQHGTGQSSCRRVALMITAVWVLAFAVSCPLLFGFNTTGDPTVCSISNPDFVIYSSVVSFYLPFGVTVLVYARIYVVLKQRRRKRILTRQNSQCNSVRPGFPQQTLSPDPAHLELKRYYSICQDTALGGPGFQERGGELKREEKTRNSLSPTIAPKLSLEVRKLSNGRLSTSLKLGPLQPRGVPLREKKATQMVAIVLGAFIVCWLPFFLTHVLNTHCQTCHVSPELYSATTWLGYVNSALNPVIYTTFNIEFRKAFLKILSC
D2longR-mNeonGreen (hD2R-mNeonGreen), sequence (P14416 whole entry): as the sequence (P14416 whole entry) above

In turn, `COCC[N+]1=C(C=CC=C2N(CCCCCC(=O)NCCCOCCOCCOCCCNC(=O)CCC(=O)Nc3ccc(CCN4CN(c5ccccc5)C5(CCN(CCCC(=O)c6ccc(F)cc6)CC5)C4=O)cc3)c3ccc(S(=O)(=O)[O-])cc3C2(C)CCCS(=O)(=O)O)C(C)(CCCS(=O)(=O)O)c2cc(S(=O)(=O)O)ccc21` (centres unmarked) [compound 16] came in with a pKi on D2longR [1] (displacement of […] [3H]N-methylspiperone, room temperature, […] min, N = […]) of 6.67 ± 0.07.

Regarding `CN(C)c1ccc2c(-c3ccc(C(=O)NCCCC(=O)Nc4ccc(CCN5CN(c6ccccc6)C6(CCN(CCCC(=O)c7ccc(F)cc7)CC6)C5=O)cc4)cc3C(=O)[O-])c3ccc(=[N+](C)C)cc-3oc2c1` [compound 20, 2-(6-(Dimethylamino)-3-(dimethyliminio)-3H-xanthen-9-yl)-5-((4-((4-(2-(8-(4-(4-fluorophenyl)-4-oxobutyl)-4-oxo-1-phenyl-1,3,8-triazaspiro[4.5]decan-3-yl)ethyl)phenyl)amino)-4-oxobutyl)carbamoyl)benzoate dihydrotrifluoracetate], the antagonist equilibrium constant (Kb) at D4R is 1.66 nM; on D2longR [2], 0.0295 nM. For the same compound, the Ki on D4R (D4.4R) was 16.6 nM; at D3R it was 2.63 nM; on D5R, 331 nM; on D1R it was 67.6 nM; at D2longR [1], 5.75 nM. Further, the Kd in assay [3] is 7.59 nM.

Consider `CN(C)c1ccc2c(-c3ccc(C(=O)NCCCOCCOCCOCCCNC(=O)CCC(=O)Nc4ccc(CCN5CN(c6ccccc6)C6(CCN(CCCC(=O)c7ccc(F)cc7)CC6)C5=O)cc4)cc3C(=O)[O-])c3ccc(=[N+](C)C)cc-3oc2c1` [compound 17, 2-(6-(Dimethylamino)-3-(dimethyliminio)-3H-xanthen-9-yl)-5-((18-((4-(2-(8-(4-(4-fluorophenyl)-4-oxobutyl)-4-oxo-1-phenyl-1,3,8-triazaspiro[4.5]decan-3-yl)ethyl)phenyl)amino)-15,18-dioxo-4,7,10-trioxa-14-azaoctadecyl)carbamoyl)benzoate dihydrotrifluoroacetate], for which the inhibitory constant (Ki) is 29.5 nM on D4R (D4.4R); 5.13 nM on D3R; more than 3160 nM on D5R; 331 nM at D1R; 5.62 nM on D2longR [1].
